Entries after “also recorded” stand apart in the source; their conditions may differ. One block for each compound: values may come before it.
Tests used:
Type in all cases: physicochemical
[1] = Grinding stability (manual grinding 5 minutes in a mortar, XRPD); settings: ground manually 5 minutes in a mortar
Procedure: Form CSII was grounded manually for 5 minutes in a mortar. XRPD was tested before and after the grinding.
Form CSIII was grounded manually for 5 minutes in a mortar. XRPD was tested before and after the grinding.
Form CSIV was grounded manually for 5 minutes in a mortar. XRPD was tested before and after the grinding.

[2] = Light stability (Chinese Pharmacopoeia method, purity by UPLC); settings: light not less than 1.2×10^6 lux-hr, near-UV not less than 200 W-hr/m^2; for Purity change: 1 week; for Chemical purity (in words): about 1 week
Text: (§1) The related substance in the present disclosure was detected by UPLC and the parameters are shown below.
(§2) Certain amounts of Form CSII of the present disclosure and the prior art amorphous form were weighted and stored for about 1 week, in accordance with the method of the Chinese Pharmacopoeia, under the condition that the total illumination of the light source was not less than 1.2×106 lux-hr and the energy of the near-ultraviolet lamp was not less than 200 W-hr/m^2, the purities of the solids before and after storage were measured by UPLC and the results are shown in Table 5.
as §2, with “CSIII” for “CSII”, “1.2×10^6” for “1.2×106”, “12.” for “5.”
as §2, with “CSIV” for “CSII”, “1.2×10^6” for “1.2×106”, “18.” for “5.”

[3] = Hygroscopicity by DVS (0% RH-95% RH-0% RH at 25° C.); settings: for Weight gain at 80% RH: DVS; for Weight gain at 80% RH / Hygroscopicity class: 25° C.; for Hygroscopicity class: weight gain at 80% RH
Procedure: DVS was measured via an SMS (Surface Measurement Systems Ltd.) intrinsic DVS instrument.
Parameters for DVS method are as follows: • Temperature: 25° C. • Gas and flow rate: nitrogen, 200 mL/min • RH range: 0% RH to 95% RH • ^1H NMR were collected from a Bruker Avance II DMX 400M HZ NMR spectrometer. 1-5 mg of sample was weighed and dissolved in 0.5 mL of deuterated dimethyl sulfoxide to obtain a solution with a concentration of 2-10 mg/mL.
Certain amounts of Form CSII of the present disclosure and the prior art amorphous form were sampled for hygroscopicity tests using DVS instrument. The weight change at each relative humidity was recorded during the cycle of 0% RH-95% RH-0% RH at 25° C.
Description and definition of hygroscopicity (general notice 9103 drug hygroscopicity test guidelines in 2020 edition of Chinese Pharmacopoeia, experimental condition: 25±1° C., 80±2% RH):
Certain amounts of Form CSIII of the present disclosure and the prior art amorphous form were sampled for hygroscopicity tests using DVS instrument. The weight change at each relative humidity was recorded during the cycle of 0% RH-95% RH-0% RH at 25° C.
Certain amounts of Form CSIV of the present disclosure and the prior art amorphous form were sampled for hygroscopicity tests using DVS instrument. The weight change at each relative humidity was recorded during the cycle of 0% RH-95% RH-0% RH at 25° C.

[4] = Stability of crystalline form in tablet formulation process (XRPD before and after); settings: tablets per Table 7 and Table 8, XRPD
Procedure: According to the formulation and process in Table 7 and Table 8, the tablets were prepared with an appropriate amount of Form CSII of the present disclosure. XRPD was tested before and after formulation.
According to the formulation and process in Table 7 and Table 8, the tablets were prepared with an appropriate amount of Form CSIII of the present disclosure. XRPD was tested before and after formulation.
According to the formulation and process in Table 7 and Table 8, the tablets were prepared with an appropriate amount of Form CSIV of the present disclosure. XRPD was tested before and after formulation.

[5] = Stability at high temperature (80° C., 2 days, purity by UPLC); settings: 2 days; for Purity change: glass vial with cap
Procedure: as §1
Certain amounts of Form CSII of the present disclosure and the prior art amorphous form were weighted and stored at 80° C. for 2 days, and the purities of the solids before and after storage were determined by UPLC, the results are as shown in Table 4.
Certain amounts of Form CSIII of the present disclosure and the prior art amorphous form were weighted and stored at 80° C. for 2 days, and the purities of the solids before and after storage were determined by UPLC, the results are as shown in Table 11.
Certain amounts of Form CSIV of the present disclosure and the prior art amorphous form were stored at 80° C. for 2 days, and the purities of the solids before and after storage were determined by UPLC, the results are as shown in Table 17.

[6] = Physical and chemical stability on storage in opened packages (purity by UPLC, solid form by XRPD); settings: for Chemical purity after storage (in words): 60° C./75% RH (b74 also name 80° C. and light)
Procedure: X-ray powder diffraction patterns in the present disclosure were acquired by a Bruker X-ray powder diffractometer. The parameters of the X-ray powder diffraction method of the present disclosure are as follows: • X-Ray: Cu, Kα • Kα1 (Å): 1.54060; Kα2 (Å): 1.54439 • Kα2/Kα1 intensity ratio: 0.50
as §1
Said “room temperature” is not a specific temperature, but a temperature range of 10-30° C. Said “open packaged” is putting the sample into a glass vial, covering the vial with aluminum foil, and punching 5-10 holes on the foil.
(§3) Form CSII of the present disclosure and the prior art amorphous form were weighed and stored under 25° C./60% RH, 40° C./75% RH and 60° C./75% RH conditions, in opened packages, respectively. The purity and solid form were determined by UPLC and XRPD. The results are listed in Table 3, and the overlaid XRPD patterns of Form CSII before and after storage for stability evaluation are shown in FIG. 4.
as §3, with “CSIII” for “CSII”, “10,” for “3,”, “9.” for “4.”
as §3, with “CSIV” for “CSII”, “C./60%” for “C./60% RH, 40° C./75%”, “40°” for “60°”, “16,” for “3,”, “15.” for “4.”

[7] = 25° C./60% RH, 2 months, open package
[8] = 40° C./75% RH, 2 months, open package
[9] = 25° C./60% RH, 6 months, open package
[10] = 40° C./75% RH, 6 months, open package
[11] = 60° C./75% RH, 1 month, open package

Crystalline state after grinding [1]: remains unchanged
Purity change [2]: +0.06%
Chemical purity (in words) [2]: basically remained unchanged
Weight gain relative to that of the prior art ([3]; 80% RH): 1/15
Weight gain at 80% RH ([3]; 80% RH): 0.24%
Crystalline state after the DVS test ([3]; XRPD before and after DVS): remained unchanged
Hygroscopicity class [3]: slightly hygroscopic
Chemical purity (in words) [5]: basically remained unchanged
Purity change [5]: +0.03%
Chemical purity during storage ([6]; 25° C./60% RH): above 99.7%
Time for which the crystalline state doesn't change / form is stable ([6]; 25° C./60% RH): at least 2 months
Purity [6, 7]: 99.74%
Purity change [6, 7]: 0.00%
Solid form [6, 7]: Form CSIV
Time for which the crystalline state doesn't change / form is stable ([6]; 40° C./75% RH): at least 2 months
Purity [6, 8]: 99.75%
Purity change [6, 8]: +0.01%
Solid form [6, 8]: Form CSIV
Purity ([6]; Initial): 99.74%
Solid form ([6]; Initial): Form CSIV
Compound: C=CC(=O)N1CCC[C@@H](n2c(=O)n(-c3ccc(Oc4ccccc4)cc3)c3c(N)nccc32)C1 [Form CSIV, (R)-1-(1-acryloylpiperidin-3-yl)-4-amino-3-(4-phenoxyphenyl)-1H-imidazo[4,5-c] pyridin-2(3H)-one]
Crystalline state after formulation process (mixed with excipients, tableted) [4]: remained unchanged; also recorded: did not change

Purity change [2]: −0.11%
Chemical purity (in words) ([2]; listed as amorphous form): significant degradation
Weight gain at 80% RH ([3]; 80% RH, listed as Prior art solid): 3.69%
Weight gain at 80% RH ([3]; 80% RH, listed as The prior art amorphous form): 3.69%
Weight gain at 80% RH ([3]; 80% RH, listed as prior art amorphous form): 3.69%
Weight gain at 80% RH ([3]; 80% RH, listed as prior art solid): 3.69%
Hygroscopicity class ([3]; listed as prior art amorphous form): hygroscopic
Hygroscopicity class ([3]; listed as prior art solid): hygroscopic
Purity change [5]: −1.16%
Chemical purity (in words) ([5]; listed as amorphous form): significant degradation
Purity [6, 9]: 99.57%
Purity change [6, 9]: −0.23%
Solid form [6, 9]: Amorphous
The number of the purities exceeding the qualification thresholds [6, 9]: 1
Chemical purity after storage (in words) ([6]; 25° C./60% RH, 40° C./75% RH, listed as prior art amorphous form): decreased significantly
Chemical purity after storage (in words) ([6]; 25° C./60% RH, 40° C./75% RH, listed as prior art solid): decreases significantly
Purity decrease ([6]; 40° C./75% RH, 2 months): 2.18%
Purity [6, 8]: 97.62%
Purity change [6, 8]: −2.18%
Solid form [6, 8]: Amorphous
Purity decrease ([6]; 40° C./75% RH, 6 months): 3.46%
Purity [6, 10]: 96.34%
Purity change [6, 10]: −3.46%
Solid form [6, 10]: Amorphous
The number of the purities exceeding the qualification thresholds [6, 10]: 4
The number of the purities exceeding the qualification thresholds ([6]; 40° C./75% RH, 6 months, open package, listed as prior art amorphous form): four
The number of the purities exceeding the qualification thresholds ([6]; 40° C./75% RH, 6 months, open package, listed as prior art solid): four
Purity decrease ([6]; 60° C./75% RH, 1 month): over 6.3%
Purity [6, 11]: 93.48%
Purity change [6, 11]: −6.32%
Solid form [6, 11]: Amorphous
The number of the purities exceeding the qualification thresholds [6, 11]: 4
The number of the purities exceeding the qualification thresholds ([6]; 60° C./75% RH, 1 month, open package, listed as prior art amorphous form): four
The number of the purities exceeding the qualification thresholds ([6]; 60° C./75% RH, 1 month, open package, listed as prior art solid): four
Purity ([6]; Initial): 99.80%
Solid form ([6]; Initial): Amorphous
The number of the purities exceeding the qualification thresholds ([6]; Initial, ICH Q3A (R2) thresholds): 1
Compound: C=CC(=O)N1CCC[C@@H](n2c(=O)n(-c3ccc(Oc4ccccc4)cc3)c3c(N)nccc32)C1 [Amorphous, (R)-1-(1-acryloylpiperidin-3-yl)-4-amino-3-(4-phenoxyphenyl)-1H-imidazo[4,5-c] pyridin-2(3H)-one, reference compound]

— patent US20250034130A1, “Crystal Form of Tolebrutinib, Preparation Method Therefor and Use Thereof” (Principia Biopharma Inc., priority 2021, published 2025)
